In the test the test system is chronic plaque psoriasis. Description: Topical treatment of chronic plaque psoriasis in humans, once a day. Particulars: topical application of 0.01 to 1% w/w once a day. Type of test: in vivo.

The values below come from patent publication US6352998B2, “Pharmaceutical compositions” (Novartis AG, priority 1997, dated 2002).

As for `CC[C@@H]1/C=C(\C)C[C@H](C)C[C@H](OC)[C@H]2O[C@@](O)(C(=O)C(=O)N3CCCC[C@H]3C(=O)O[C@H](/C(C)=C/[C@@H]3CC[C@@H](O)[C@H](OC)C3)[C@H](C)[C@@H](O)CC1=O)[C@H](C)C[C@@H]2OC` (relative stereo) [Compound 3, [3S-[3R*[E(1S*,3S*,4S*)],4S*,5R*,8S*,9E,12R*,14R*,15S*,16R*,18S*,-19S*,26aR*]]-5,6,8,11,12,13,14,15,16,17,18,19,24,25,26,26a-hexadecahydro-5,19-dihydroxy-3-[2-(4-hydroxy-3-methoxy-cyclohexyl)-1-methylethenyl)]-14,16-dimethoxy4,10,12,18,-tetramethyl-8-ethyl-15,19-epoxy-3H-pyrido[2,1-c][1,4]oxaazacyclotricosine-1,7,20,21(4H,23H)-tetrone], the “Efficacy in the treatment of chronic plaque psoriasis” value is recorded as “effective”.
The result for “[3S-[3R*[E(1S*,3S*,4S*)],4S*,5R*,8S*,9E,12R*,-14R*,15S*,16R*,18S*,19S*,26aR*]]-5,6,8,11,12,13,14,15,16,17,18,19,24,25,26,26a-hexadecahydro-5,19-dihydroxy-3-(3-hydroxymethylcyclopentyl)-1-methylethenyl)]-14,16-dimethoxy-4,10,12,18,-tetramethyl-8-ethyl-15,19-epoxy-3H-pyrido[2,1-c][1,4]oxaazacyclotricosine-1,7,20,21(4H,23H)-tetrone [Compound 2]” reads “effective”.
